{"source": "paper PMC7127386", "about": "(Antiviral Research, 2020)", "key": {"SARS-CoV-2 virus [1]": {"tested_on": "SARS-CoV-2 virus", "format": "cell-based"}, "SARS-CoV-2 virus [2]": {"tested_on": "SARS-CoV-2 virus", "format": "cell-based", "remark": "listed apart in the source"}, "SARS-CoV-2 virus [3]": {"tested_on": "SARS-CoV-2 virus", "format": "cell-based", "conditions": "read-out: Reduction in viral RNA copy (EC50)"}, "SARS-CoV-2 virus [4]": {"tested_on": "SARS-CoV-2 virus", "format": "cell-based", "conditions": "read-out: Reduction in infectious virus (EC50)"}}, "note": "“Also recorded” adds a separate entry of the source. Read-outs that look alike come from different tables or passages of the source.", "data": [{"smiles": "CN[C@H]1C(=O)N[C@@H]2Cc3ccc(cc3)Oc3cc4cc(c3O[C@@H]3O[C@H](C(=O)O)[C@@H](O)[C@H](O)[C@H]3NC(=O)CCCCCCCCC(C)C)Oc3ccc(cc3Cl)[C@@H](O)[C@@H]3NC(=O)[C@H](NC(=O)[C@@H]4NC(=O)[C@@H](NC2=O)c2cc(cc(O)c2Cl)Oc2cc1ccc2O)c1ccc(O)c(c1)-c1c(O[C@H]2O[C@H](CO)[C@@H](O)[C@H](O)[C@@H]2O)cc(O)cc1[C@@H](C(=O)NCCCN(C)C)NC3=O.Cl", "note": "[Dalbavancin hydrochloride]", "values": [{"measurement": "CPE inhibition (lowest concentration of the compound with 100% CPE inhibition)", "setting": "SARS-CoV-2 virus [1]", "value": ">100", "unit": "µM"}]}, {"smiles": "NC(=O)c1nc(F)c[nH]c1=O", "note": "[Favipiravir]", "values": [{"measurement": "Antiviral effect against SARS-CoV-2 virus in vitro (in words)", "setting": "SARS-CoV-2 virus [2]", "value": "no apparent antiviral effect; also recorded: did not inhibit viral replication"}, {"measurement": "Inhibition of SARS-CoV-2 (in words)", "setting": "SARS-CoV-2 virus [2]", "value": "no inhibition"}]}, {"smiles": "Nc1nc(F)nc2c1ncn2[C@@H]1O[C@H](COP(=O)(O)O)[C@@H](O)[C@@H]1O", "note": "[Fludarabine phosphate]", "values": [{"measurement": "Antiviral effect against SARS-CoV-2 virus in vitro (in words)", "setting": "SARS-CoV-2 virus [2]", "value": "did not inhibit viral replication"}]}, {"smiles": "Nc1ncnc2c([C@@H]3N[C@H](CO)[C@@H](O)[C@H]3O)c[nH]c12", "note": "[Galidesivir]", "values": [{"measurement": "Antiviral effect against SARS-CoV-2 virus in vitro (in words)", "setting": "SARS-CoV-2 virus [2]", "value": "did not inhibit viral replication"}]}, {"smiles": "CN[C@H](CC(C)C)C(=O)N[C@H]1C(=O)N[C@@H](CC(N)=O)C(=O)N[C@H]2C(=O)N[C@H]3C(=O)N[C@H](C(=O)N[C@H](C(=O)O)c4cc(O)cc(O)c4-c4cc3ccc4O)[C@H](O[C@H]3C[C@](C)(N)[C@@H](O)[C@H](C)O3)c3ccc(c(Cl)c3)Oc3cc2cc(c3O[C@@H]2O[C@H](CO)[C@@H](O)[C@H](O)[C@H]2O[C@H]2C[C@](C)(NCc3ccc(-c4ccc(Cl)cc4)cc3)[C@@H](O)[C@H](C)O2)Oc2ccc(cc2Cl)[C@H]1O.O=P(O)(O)O.O=P(O)(O)O", "note": "[Oritavancin diphosphate]", "values": [{"measurement": "CPE inhibition (lowest concentration of the compound with 100% CPE inhibition)", "setting": "SARS-CoV-2 virus [1]", "value": ">100", "unit": "µM"}]}, {"smiles": "CCC(CC)O[C@@H]1C=C(C(=O)O)C[C@H](N)[C@H]1NC(C)=O", "note": "[Oseltamivir carboxylate]", "values": [{"measurement": "EC50", "setting": "SARS-CoV-2 virus [3]", "value": "> 100", "unit": "µM"}, {"measurement": "CPE inhibition (lowest concentration of the compound with 100% CPE inhibition)", "setting": "SARS-CoV-2 virus [1]", "value": ">100", "unit": "µM"}, {"measurement": "Antiviral effect against SARS-CoV-2 virus in vitro (in words)", "setting": "SARS-CoV-2 virus [2]", "value": "no apparent antiviral effect"}, {"measurement": "CC50", "setting": "Vero E6 cells", "value": "> 100", "unit": "µM"}, {"measurement": "EC50", "setting": "SARS-CoV-2 virus [4]", "value": "> 100", "unit": "µM"}]}, {"smiles": "[N-]=[N+]=N[C@]1(CO)O[C@@H](n2ccc(N)nc2=O)[C@H](O)[C@@H]1O", "note": "[R-1479]", "values": [{"measurement": "CPE inhibition (lowest concentration of the compound with 100% CPE inhibition)", "setting": "SARS-CoV-2 virus [1]", "value": ">100", "unit": "µM"}, {"measurement": "Antiviral effect against SARS-CoV-2 virus in vitro (in words)", "setting": "SARS-CoV-2 virus [2]", "value": "did not inhibit viral replication"}, {"measurement": "CC50", "setting": "Vero E6 cells", "value": "> 100", "unit": "µM"}]}, {"smiles": "NC(=O)c1ncn([C@@H]2O[C@H](CO)[C@@H](O)[C@H]2O)n1", "note": "[Ribavirin]", "values": [{"measurement": "Antiviral effect against SARS-CoV-2 virus in vitro (in words)", "setting": "SARS-CoV-2 virus [2]", "value": "no apparent antiviral effect; also recorded: did not inhibit viral replication"}, {"measurement": "Inhibition of SARS-CoV-2 (in words)", "setting": "SARS-CoV-2 virus [2]", "value": "no inhibition"}]}, {"smiles": "C[C@H](Cn1cnc2c(N)ncnc21)OCP(=O)(O)O", "note": "[Tenofovor]", "values": [{"measurement": "Antiviral effect against SARS-CoV-2 virus in vitro (in words)", "setting": "SARS-CoV-2 virus [2]", "value": "did not inhibit viral replication"}]}]}
